Data as given in patent publication US9850283B2, “Macrocyclic inhibitors of the PD-1/PD-L1 and CD80(B7-1)/PD-L1 protein/protein interactions” (BRISTOL-MYERS SQUIBB COMPANY, priority 2013, dated 2017).
pIC50: −log10 of the molar value. Like-named read-outs stand apart in the source and are kept apart here. Positions of bridges follow the written chain, without caps; N, C: chain ends. Non-standard residues stand in square brackets, D forms with d. Residues, ends and D or L forms follow the SMILES beside them. ξ: configuration not given here. Phe(4-SO2NH2) = N[C@@H](Cc1ccc(S(N)(=O)=O)cc1)C(=O)O; Phe(3,4-(OMe)2) = COc1ccc(C[C@H](N)C(=O)O)cc1OC; Phe(4-CH2NH2) = NCc1ccc(C[C@H](N)C(=O)O)cc1; Trp(1-Me) = Cn1cc(C[C@H](N)C(=O)O)c2ccccc21; Phe(3-OMe) = COc1cccc(C[C@H](N)C(=O)O)c1; Phe(4-CN) = N#Cc1ccc(C[C@H](N)C(=O)O)cc1; Phe(4-Cl) = N[C@@H](Cc1ccc(Cl)cc1)C(=O)O; ξPhe(βξ-Me) = CC(c1ccccc1)C(N)C(=O)O; Bta = N[C@@H](Cc1csc2ccccc12)C(=O)O; Hyp = O=C(O)[C@@H]1C[C@@H](O)CN1; NMeF = CN[C@@H](Cc1ccccc1)C(=O)O; tBuAla = CC(C)(C)C[C@H](N)C(=O)O; NMeNle = CCCC[C@H](NC)C(=O)O; NMeA = CN[C@@H](C)C(=O)O; Dab = NCC[C@H](N)C(=O)O; Dap = NC[C@H](N)C(=O)O; ξC = NC(CS)C(=O)O; Sar = CNCC(=O)O

Columns and labels:
[1] = biological target: T1, LK35.2-hPD-L1 cells / PE-labeled PD-1-Ig (Homo sapiens, UniProt Q9NZQ7); test: LK35.2-hPD-L1 cell binding high-content screening assay; format: cell-based; conditions: cluster symbol, read-out: CBA IC50 cluster
T1 construct: expressed in transfected cells; host or cells: LK35.2 mouse B cell line
T1 sequence (Q9NZQ7 19-290): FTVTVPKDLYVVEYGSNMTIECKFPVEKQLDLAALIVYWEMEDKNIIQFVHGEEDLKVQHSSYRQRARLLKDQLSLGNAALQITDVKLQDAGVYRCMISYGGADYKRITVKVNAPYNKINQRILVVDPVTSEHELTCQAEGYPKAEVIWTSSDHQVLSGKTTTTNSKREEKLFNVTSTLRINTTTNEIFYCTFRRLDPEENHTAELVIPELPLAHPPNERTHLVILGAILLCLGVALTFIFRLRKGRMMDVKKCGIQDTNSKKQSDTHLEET
Outline: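 Mouse LK35.2 B cells stably overexpressing human PD-L1 were cultured overnight in RPMI with 10% FCS, then given compound and PE-labeled human PD-1-Ig (1 nM final) for 1 h at 37 °C. After three dPBS washes, bound fluorescence was quantified by high-content imaging.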

Human PD-L1/PD-1 = biological target: T2, Human PD-L1/PD-1 (Homo sapiens, UniProt Q9NZQ7); test: HTRF PD-1-Ig/PD-L1-His binding assay (human PD-L1); conditions: cluster symbol; read-out: HTRF IC50 cluster
T2 construct: made in house; host or cells: HEK293T
T2 sequence (Q9NZQ7 with tags, fused parts or gaps): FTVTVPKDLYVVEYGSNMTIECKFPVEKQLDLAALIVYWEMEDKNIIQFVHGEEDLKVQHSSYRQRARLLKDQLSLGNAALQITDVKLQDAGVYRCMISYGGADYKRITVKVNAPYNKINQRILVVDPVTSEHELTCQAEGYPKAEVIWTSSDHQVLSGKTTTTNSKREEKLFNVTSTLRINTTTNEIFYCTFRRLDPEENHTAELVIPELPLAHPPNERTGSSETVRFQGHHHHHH
Outline: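 Interaction of Fc-tagged soluble PD-1 with His-tagged soluble PD-L1 is monitored by time-resolved FRET. Donor is europium cryptate anti-Ig (1 nM final) and acceptor is APC anti-His (20 nM final). Assay buffer is dPBS with 0.1% BSA and 0.05% Tween-20.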

[2] = cell line of CBA not given (LK35.2-hPD-L1 or 293T-hPD-L1)
[3] = cell binding assay, cell line not given

| Structure (SMILES) | pIC50 [1, 2] | pIC50 (Human PD-L1/PD-1) | pIC50 [1, 3] |
| --- | --- | --- | --- |
| CCCC[C@H]1C(=O)N(C)[C@@H](CCCC)C(=O)N[C@@H](CCCNC(=N)N)C(=O)N[C@H](C(=O)NCC(N)=O)CSCC(=O)N[C@@H](Cc2ccc(O)cc2)C(=O)N(C)[C@@H](C)C(=O)N[C@@H](CC(N)=O)C(=O)N2CCC[C@H]2C(=O)N[C@@H](Cc2cnc[nH]2)C(=O)N[C@@H](CC(C)C)C(=O)N2CCC[C@H]2C(=O)N[C@@H](Cc2c[nH]c3ccccc23)C(=O)N[C@@H](CO)C(=O)N[C@@H](Cc2cn(C)c3ccccc23)C(=O)N1C [Example 1130] ({CH2CO}-Y[NMeA]NPHLPWS[Trp(1-Me)][NMeNle][NMeNle]RCG-NH2; thioether N-14) | 8.33 to 9.80 | < 7.52 |  |
| CCCC[C@H]1C(=O)N(C)[C@@H](CCCC)C(=O)N[C@@H](C)C(=O)N[C@H](C(=O)NCC(N)=O)CSCC(=O)N[C@@H](Cc2ccc(O)cc2)C(=O)N(C)[C@@H](C)C(=O)N[C@@H](CC(=O)O)C(=O)N2CCC[C@H]2C(=O)N[C@@H](CN)C(=O)N[C@@H](CC(C)C)C(=O)N2C[C@H](O)C[C@H]2C(=O)N[C@@H](Cc2c[nH]c3ccccc23)C(=O)N[C@@H](CO)C(=O)N[C@@H](Cc2c[nH]c3ccccc23)C(=O)N1C [Example 1138] ({CH2CO}-Y[NMeA]DP[Dap]L[Hyp]WSW[NMeNle][NMeNle]ACG-NH2; thioether N-14) | 8.33 to 9.80 | 7.52 to 8.17 |  |
| CCCC[C@H]1C(=O)N(C)[C@@H](CCCC)C(=O)N[C@@H](CCCNC(=N)N)C(=O)N[C@H](C(=O)NCC(N)=O)CSCC(=O)N[C@@H](Cc2ccc(O)cc2)C(=O)N(C)[C@@H](C)C(=O)N[C@@H](CC(N)=O)C(=O)N2CCC[C@H]2C(=O)N[C@@H](Cc2cnc[nH]2)C(=O)N[C@@H](CC(C)C)C(=O)N2C[C@H](O)C[C@H]2C(=O)N[C@@H](Cc2c[nH]c3ccccc23)C(=O)N[C@@H](CCN)C(=O)N[C@@H](Cc2c[nH]c3ccccc23)C(=O)N1C [Example 1134] ({CH2CO}-Y[NMeA]NPHL[Hyp]W[Dab]W[NMeNle][NMeNle]RCG-NH2; thioether N-14) | 8.33 to 9.80 | 7.52 to 8.17 |  |
| CCCC[C@H]1C(=O)N(C)[C@@H](CCCC)C(=O)N[C@@H](CCCNC(=N)N)C(=O)N[C@H](C(=O)NCC(N)=O)CSCC(=O)N[C@@H](Cc2cccc(OC)c2)C(=O)N(C)[C@@H](C)C(=O)N[C@@H](CC(N)=O)C(=O)N2CCC[C@H]2C(=O)N[C@@H](Cc2cnc[nH]2)C(=O)N[C@@H](CC(C)C)C(=O)N(C)CC(=O)N[C@@H](Cc2c[nH]c3ccccc23)C(=O)N[C@@H](CO)C(=O)N[C@@H](Cc2c[nH]c3ccccc23)C(=O)N1C [Example 1098] ({CH2CO}-[Phe(3-OMe)][NMeA]NPHL[Sar]WSW[NMeNle][NMeNle]RCG-NH2; thioether N-14) | 7.14 to 8.32 | 7.52 to 8.17 |  |
| CCCC[C@H]1C(=O)N(C)[C@@H](CCCC)C(=O)N[C@@H](CCCNC(=N)N)C(=O)N[C@H](C(=O)NCC(N)=O)CSCC(=O)N[C@@H](Cc2ccc(S(N)(=O)=O)cc2)C(=O)N(C)[C@@H](C)C(=O)N[C@@H](CC(N)=O)C(=O)N2CCC[C@H]2C(=O)N[C@@H](Cc2cnc[nH]2)C(=O)N[C@@H](CC(C)C)C(=O)N(C)CC(=O)N[C@@H](Cc2c[nH]c3ccccc23)C(=O)N[C@@H](CO)C(=O)N[C@@H](Cc2c[nH]c3ccccc23)C(=O)N1C [Example 1093] ({CH2CO}-[Phe(4-SO2NH2)][NMeA]NPHL[Sar]WSW[NMeNle][NMeNle]RCG-NH2; thioether N-14) | < 7.13 | < 7.52 |  |
| CCCC[C@H]1C(=O)N(C)[C@@H](CCCC)C(=O)N[C@@H](C)C(=O)N[C@H](C(=O)NCC(N)=O)CSCC(=O)N[C@@H](Cc2ccc(O)cc2)C(=O)N(C)[C@@H](C)C(=O)N[C@@H](CC(N)=O)C(=O)N2CCC[C@H]2C(=O)N[C@@H](Cc2cnc[nH]2)C(=O)N[C@@H](CC(C)C)C(=O)N2CCC[C@H]2C(=O)N[C@@H](Cc2c[nH]c3ccccc23)C(=O)N[C@@H](Cc2ccc(O)cc2)C(=O)N[C@@H](Cc2csc3ccccc23)C(=O)N1C [Example 1050] ({CH2CO}-Y[NMeA]NPHLPWY[Bta][NMeNle][NMeNle]ACG-NH2; thioether N-14) | 7.14 to 8.32 | < 7.52 |  |

Other lines, results leading:

| pIC50 [1, 2] | pIC50 (Human PD-L1/PD-1) | pIC50 [1, 3] | Structure (SMILES) |
| --- | --- | --- | --- |
|  | < 7.52 | < 7.13 | CCCC[C@H]1C(=O)N(C)[C@@H](CCCC)C(=O)N[C@@H](CCCNC(=N)N)C(=O)N[C@H](C(=O)NCC(N)=O)CSCC(=O)N[C@@H](Cc2ccccc2)C(=O)N(C)[C@@H](C)C(=O)N[C@@H](CC(N)=O)C(=O)N2CCC[C@H]2C(=O)N[C@@H](Cc2cnc[nH]2)C(=O)N[C@@H](CO)C(=O)N(C)CC(=O)N[C@@H](Cc2c[nH]c3ccccc23)C(=O)N[C@@H](CO)C(=O)N[C@@H](Cc2c[nH]c3ccccc23)C(=O)N1C [Example 6010] ({CH2CO}-F[NMeA]NPHS[Sar]WSW[NMeNle][NMeNle]RCG-NH2; thioether N-14) |
|  | 8.17 to 9.41 | 8.33 to 9.80 | CCCC[C@H]1C(=O)N(C)[C@@H](CCCC)C(=O)N[C@@H](CN)C(=O)N[C@H](C(=O)NCC(N)=O)CSCC(=O)N[C@@H](Cc2ccc(O)cc2)C(=O)N(C)[C@@H](C)C(=O)N[C@@H](CC(N)=O)C(=O)N2CCC[C@H]2C(=O)N[C@@H](Cc2c[nH]cn2)C(=O)N[C@@H](CCC(=O)O)C(=O)N2C[C@H](O)C[C@H]2C(=O)N[C@@H](Cc2c[nH]c3ccccc23)C(=O)N[C@@H](CCN)C(=O)N[C@@H](Cc2c[nH]c3ccccc23)C(=O)N1C [Example 5064] ({CH2CO}-Y[NMeA]NPHE[Hyp]W[Dab]W[NMeNle][NMeNle][Dap]CG-NH2; thioether N-14) |
| 7.14 to 8.32 | 7.52 to 8.17 |  | CCCC[C@H]1C(=O)N(C)CC(=O)N[C@@H](CC(=O)O)C(=O)N[C@@H](C(C)C)C(=O)N(C)[C@@H](Cc2ccccc2)C(=O)N[C@@H](Cc2ccc(CN)cc2)C(=O)N(C)CC(=O)N[C@@H](Cc2csc3ccccc23)C(=O)N[C@@H](Cc2ccc(O)cc2)C(=O)N[C@@H](CC(C)C)C(=O)N[C@H](C(=O)NCC(N)=O)CSCC(=O)N[C@@H](Cc2ccc(Cl)cc2)C(=O)N(C)[C@@H](Cc2ccccc2)C(=O)N1C [Example 3119] ({CH2CO}-[Phe(4-Cl)][NMeF][NMeNle][Sar]DV[NMeF][Phe(4-CH2NH2)][Sar][Bta]YLCG-NH2; thioether N-13) |
|  | < 7.52 | < 7.13 | CCCC[C@H]1C(=O)N(C)CC(=O)N[C@@H](CC(=O)O)C(=O)N[C@@H](C(C)C)C(=O)N(C)[C@@H](Cc2ccccc2)C(=O)N[C@@H](Cc2ccc(O)cc2)C(=O)N(C)CC(=O)N[C@@H](Cc2c[nH]c3ccccc23)C(=O)N[C@@H](Cc2ccc(O)cc2)C(=O)N[C@@H](CC(C)C)C(=O)N[C@H](C(=O)NCC(N)=O)CSCC(=O)NC(C(C)c2ccccc2)C(=O)N(C)[C@@H](Cc2ccccc2)C(=O)N1C (stereo partly drawn) [Example 3516] ({CH2CO}-[ξPhe(βξ-Me)][NMeF][NMeNle][Sar]DV[NMeF]Y[Sar]WYLCG-NH2; thioether N-13) |
|  | 7.52 to 8.17 | 7.14 to 8.32 | CCCC[C@H]1C(=O)N(C)[C@@H](CCCC)C(=O)N[C@@H](CC(C)(C)C)C(=O)N[C@H](C(=O)NCC(N)=O)CSCC(=O)N[C@@H](Cc2ccc(O)cc2)C(=O)N(C)[C@@H](C)C(=O)N[C@@H](CC(N)=O)C(=O)N2CCC[C@H]2C(=O)N[C@@H](Cc2c[nH]cn2)C(=O)N[C@@H](CCC(N)=O)C(=O)N2C[C@H](O)C[C@H]2C(=O)N[C@@H](Cc2c[nH]c3ccccc23)C(=O)N[C@@H](CO)C(=O)N[C@@H](Cc2c[nH]c3ccccc23)C(=O)N1C [Example 5076] ({CH2CO}-Y[NMeA]NPHQ[Hyp]WSW[NMeNle][NMeNle][tBuAla]CG-NH2; thioether N-14) |
|  | 8.17 to 9.41 | 8.33 to 9.80 | CCCC[C@H]1C(=O)N(C)[C@@H](CCCC)C(=O)N[C@@H](CCCNC(=N)N)C(=O)N[C@H](C(=O)NCC(N)=O)CSCC(=O)N[C@@H](Cc2ccc(C#N)cc2)C(=O)N(C)[C@@H](C)C(=O)N[C@@H](CC(N)=O)C(=O)N2CCC[C@H]2C(=O)N[C@@H](Cc2cnc[nH]2)C(=O)N[C@@H](CC(C)C)C(=O)N2C[C@H](O)C[C@H]2C(=O)N[C@@H](Cc2c[nH]c3ccccc23)C(=O)N[C@@H](CO)C(=O)N[C@@H](Cc2c[nH]c3ccccc23)C(=O)N1C [Example 7046] ({CH2CO}-[Phe(4-CN)][NMeA]NPHL[Hyp]WSW[NMeNle][NMeNle]RCG-NH2; thioether N-14) |
|  | 8.17 to 9.41 | 7.14 to 8.32 | CCCC[C@H]1C(=O)N(C)[C@@H](CCCC)C(=O)N[C@@H](CCCNC(=N)N)C(=O)N[C@H](C(=O)NCC(N)=O)CSCC(=O)N[C@@H](Cc2ccc(OC)c(OC)c2)C(=O)N(C)[C@@H](C)C(=O)N[C@@H](CC(N)=O)C(=O)N2CCC[C@H]2C(=O)N[C@@H](CN)C(=O)N[C@@H](CC(C)C)C(=O)N2C[C@H](O)C[C@H]2C(=O)N[C@@H](Cc2c[nH]c3ccccc23)C(=O)N[C@@H](CO)C(=O)N[C@@H](Cc2c[nH]c3ccccc23)C(=O)N1C [Example 7040] ({CH2CO}-[Phe(3,4-(OMe)2)][NMeA]NP[Dap]L[Hyp]WSW[NMeNle][NMeNle]RCG-NH2; thioether N-14) |
|  | 8.17 to 9.41 | 8.33 to 9.80 | CCCC[C@H]1C(=O)N(C)[C@@H](CCCC)C(=O)N[C@@H](CCCNC(=N)N)C(=O)NC(C(=O)NCC(N)=O)CSCC(=O)N[C@@H](Cc2ccc(O)cc2)C(=O)N(C)[C@@H](C)C(=O)N[C@@H](CC(N)=O)C(=O)N2CCC[C@H]2C(=O)N[C@@H](CO)C(=O)N[C@@H](CC(C)C)C(=O)N2C[C@H](O)C[C@H]2C(=O)N[C@@H](Cc2c[nH]c3ccccc23)C(=O)N[C@@H](CO)C(=O)N[C@@H](Cc2csc3ccccc23)C(=O)N1C (stereo partly shown) [Example 9071] ({CH2CO}-Y[NMeA]NPSL[Hyp]WS[Bta][NMeNle][NMeNle]R[ξC]G-NH2; thioether N-14) |
